One assay relates to GM-CSF signaling. Kind of assay: Phase 1 study: whole blood PD, GM-CSF (JAK2) signaling. Type of assay: in vivo, human. On the procedure: Human Whole Blood Assays: Inhibition of SYK- and JAK-dependent and independent signaling was determined by stimulating human whole blood with various agonists against BCR and cytokine receptors. 100 μL aliquots of heparinized healthy human whole blood was stimulated as previously described (Coffey et al, J. of Pharm. and Experimental Therapeutics, 351:538-548, 2014), using an 8-point concentration curve to determine IC50's. Signaling and activation responses were determined by Fluorescence-activated cell sorting (“FACS”). For the clinical trial, whole blood samples were collected prior to and after dosing. Percent inhibition was calculated by normalizing to the pre-dose stimulation response.
Pharmacokinetics (“PK”), pharmacodynamics (“PD”), and safety were monitored. Response was assessed by standard criteria. The level of inhibition of SYK and JAK was determined using a variety of whole blood assays measuring signaling via receptors for the B-cell antigen, IL2, IL4, IL6, and GM-CSF. Serum markers of tumor burden, including CCL3, CCL4, and other markers of inflammation (β2M and CRP), were also being measured.

For a further assay, the target named is T1, FLT4 (Homo sapiens, UniProt P35916).
T1 construct: purchased Millipore
Kind of assay: Purified kinase assay (Millipore). Type of assay: biochemical. Particulars: 300 nM ATP. On the procedure:
(§1) Purified Kinase Assays: Performed at Millipore at a fixed concentration of 300 nM ATP. A 10-point concentration curve was used to determine IC (Inhibitory Concentration).

For the next assay, the target named is T2, MST2 (Homo sapiens, UniProt Q13188).
T2 construct: purchased Millipore
Kind of assay: Purified kinase assay (Millipore). It counts as biochemical. Particulars: 300 nM ATP. As for the experimental part:
as §1

The target of a further assay is T3, ITK (Homo sapiens, UniProt Q08881).
T3 construct: purchased Millipore
Kind of assay: Purified kinase assay (Millipore). Particulars: 300 nM ATP. Type of assay: biochemical. On the procedure:
as §1

The target of the next assay is T4, RSK4 (Homo sapiens, UniProt Q9UK32).
T4 construct: purchased Millipore
Kind of assay: Purified kinase assay (Millipore). Type of assay: biochemical. Particulars: 300 nM ATP. On the procedure:
as §1

A further assay concerns the target T5, RSK2 (Homo sapiens, UniProt P51812).
T5 construct: purchased Millipore
The assay is described as follows: Purified kinase assay (Millipore). It counts as biochemical. Particulars: 300 nM ATP. On the procedure:
as §1

In another assay the target is T6, FMS (Homo sapiens, UniProt P07333).
T6 construct: purchased Millipore
The assay is described as follows: Purified kinase assay (Millipore). Type of assay: biochemical. Particulars: 300 nM ATP. As for the experimental part: as §1

The next assay concerns the target T7, MST1 (Homo sapiens, UniProt Q13043).
T7 construct: purchased Millipore
Kind of assay: Purified kinase assay (Millipore). It counts as biochemical. The conditions noted are these: 300 nM ATP. On the procedure: as §1

A further assay deals with T8, RET (Homo sapiens, UniProt P07949).
T8 construct: purchased Millipore
Kind of assay: Purified kinase assay (Millipore). It counts as biochemical. Particulars: 300 nM ATP. On the procedure:
as §1

For the next assay, the target named is T9, TYK2 (Homo sapiens, UniProt P29597).
T9 construct: purchased Millipore
Kind of assay: Purified kinase assay (Millipore). It counts as biochemical. Particulars: 300 nM ATP. On the procedure:
as §1

A further assay addresses T10, MARK1 (Homo sapiens, UniProt Q9P0L2).
T10 construct: purchased Millipore
Kind of assay: Purified kinase assay (Millipore). It counts as biochemical. Particulars: 300 nM ATP. As for the experimental part: as §1

The target of the next assay is T11, MLK1 (Homo sapiens, UniProt P80192).
T11 construct: purchased Millipore
Kind of assay: Purified kinase assay (Millipore). Type of assay: biochemical. The conditions noted are these: 300 nM ATP. As for the experimental part: as §1

For another assay, the target named is T12, FLT3 (Homo sapiens, UniProt P36888).
T12 construct: purchased Millipore
The assay is described as follows: Purified kinase assay (Millipore). Type of assay: biochemical. The conditions noted are these: 300 nM ATP. On the procedure: as §1

A further assay concerns the target T13, JAK1 (Homo sapiens, UniProt P23458).
T13 construct: purchased Millipore
The assay is described as follows: Purified kinase assay (Millipore). Particulars: 300 nM ATP. It counts as biochemical.

Consider 1 compound from US12350269B2 (Alexion Pharmaceuticals, Inc., priority 2015, dated 2025).

pIC50: −log10 of the molar value.

T4 sequence (Q9UK32 whole entry): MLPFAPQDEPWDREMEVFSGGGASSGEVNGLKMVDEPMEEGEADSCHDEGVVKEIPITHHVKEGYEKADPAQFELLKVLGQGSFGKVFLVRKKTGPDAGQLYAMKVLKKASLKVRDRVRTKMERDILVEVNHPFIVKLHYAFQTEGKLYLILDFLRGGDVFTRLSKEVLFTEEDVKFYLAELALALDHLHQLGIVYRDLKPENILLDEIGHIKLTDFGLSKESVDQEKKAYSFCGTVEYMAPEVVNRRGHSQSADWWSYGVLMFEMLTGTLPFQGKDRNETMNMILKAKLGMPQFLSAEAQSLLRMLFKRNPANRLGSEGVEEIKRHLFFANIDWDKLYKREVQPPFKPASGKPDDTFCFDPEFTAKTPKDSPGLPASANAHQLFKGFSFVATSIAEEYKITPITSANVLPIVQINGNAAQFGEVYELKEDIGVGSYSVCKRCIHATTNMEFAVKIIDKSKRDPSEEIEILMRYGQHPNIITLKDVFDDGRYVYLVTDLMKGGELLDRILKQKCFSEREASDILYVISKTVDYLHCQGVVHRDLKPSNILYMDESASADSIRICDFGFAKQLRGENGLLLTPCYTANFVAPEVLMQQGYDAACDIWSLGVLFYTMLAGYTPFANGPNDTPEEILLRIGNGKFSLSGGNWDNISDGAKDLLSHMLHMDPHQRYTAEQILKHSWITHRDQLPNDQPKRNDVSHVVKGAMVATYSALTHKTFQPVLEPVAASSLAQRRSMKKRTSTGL
T3 sequence (Q08881 whole entry): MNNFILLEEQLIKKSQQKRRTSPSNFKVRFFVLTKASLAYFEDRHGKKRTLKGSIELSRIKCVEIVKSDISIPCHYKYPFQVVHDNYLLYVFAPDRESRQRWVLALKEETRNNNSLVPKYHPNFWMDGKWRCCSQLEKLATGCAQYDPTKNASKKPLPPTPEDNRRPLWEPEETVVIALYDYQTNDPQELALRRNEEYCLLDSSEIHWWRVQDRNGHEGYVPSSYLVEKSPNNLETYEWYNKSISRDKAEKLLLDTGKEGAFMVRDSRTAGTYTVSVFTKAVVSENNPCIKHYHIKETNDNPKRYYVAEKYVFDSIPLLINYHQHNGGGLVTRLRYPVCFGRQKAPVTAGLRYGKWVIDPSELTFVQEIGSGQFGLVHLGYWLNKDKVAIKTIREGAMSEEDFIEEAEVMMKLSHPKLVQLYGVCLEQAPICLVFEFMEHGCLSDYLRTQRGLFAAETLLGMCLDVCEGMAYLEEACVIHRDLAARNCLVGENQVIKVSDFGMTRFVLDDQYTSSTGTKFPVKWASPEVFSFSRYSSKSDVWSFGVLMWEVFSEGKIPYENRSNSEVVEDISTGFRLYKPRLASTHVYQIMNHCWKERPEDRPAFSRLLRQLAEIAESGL
T7 sequence (Q13043 whole entry): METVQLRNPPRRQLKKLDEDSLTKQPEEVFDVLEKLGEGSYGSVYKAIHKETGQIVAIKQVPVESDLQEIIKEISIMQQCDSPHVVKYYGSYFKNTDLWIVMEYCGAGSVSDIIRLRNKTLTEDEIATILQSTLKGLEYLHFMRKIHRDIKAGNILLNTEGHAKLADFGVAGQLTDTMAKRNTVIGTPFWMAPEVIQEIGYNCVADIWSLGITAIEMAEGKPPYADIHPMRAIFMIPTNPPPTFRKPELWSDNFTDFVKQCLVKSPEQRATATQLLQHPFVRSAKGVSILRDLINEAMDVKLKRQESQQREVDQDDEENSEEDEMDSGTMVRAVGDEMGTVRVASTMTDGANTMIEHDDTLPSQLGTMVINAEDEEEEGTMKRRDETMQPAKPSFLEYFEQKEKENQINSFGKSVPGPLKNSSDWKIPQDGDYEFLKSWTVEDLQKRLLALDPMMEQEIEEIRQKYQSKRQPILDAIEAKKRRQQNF
T6 sequence (P07333 20-972): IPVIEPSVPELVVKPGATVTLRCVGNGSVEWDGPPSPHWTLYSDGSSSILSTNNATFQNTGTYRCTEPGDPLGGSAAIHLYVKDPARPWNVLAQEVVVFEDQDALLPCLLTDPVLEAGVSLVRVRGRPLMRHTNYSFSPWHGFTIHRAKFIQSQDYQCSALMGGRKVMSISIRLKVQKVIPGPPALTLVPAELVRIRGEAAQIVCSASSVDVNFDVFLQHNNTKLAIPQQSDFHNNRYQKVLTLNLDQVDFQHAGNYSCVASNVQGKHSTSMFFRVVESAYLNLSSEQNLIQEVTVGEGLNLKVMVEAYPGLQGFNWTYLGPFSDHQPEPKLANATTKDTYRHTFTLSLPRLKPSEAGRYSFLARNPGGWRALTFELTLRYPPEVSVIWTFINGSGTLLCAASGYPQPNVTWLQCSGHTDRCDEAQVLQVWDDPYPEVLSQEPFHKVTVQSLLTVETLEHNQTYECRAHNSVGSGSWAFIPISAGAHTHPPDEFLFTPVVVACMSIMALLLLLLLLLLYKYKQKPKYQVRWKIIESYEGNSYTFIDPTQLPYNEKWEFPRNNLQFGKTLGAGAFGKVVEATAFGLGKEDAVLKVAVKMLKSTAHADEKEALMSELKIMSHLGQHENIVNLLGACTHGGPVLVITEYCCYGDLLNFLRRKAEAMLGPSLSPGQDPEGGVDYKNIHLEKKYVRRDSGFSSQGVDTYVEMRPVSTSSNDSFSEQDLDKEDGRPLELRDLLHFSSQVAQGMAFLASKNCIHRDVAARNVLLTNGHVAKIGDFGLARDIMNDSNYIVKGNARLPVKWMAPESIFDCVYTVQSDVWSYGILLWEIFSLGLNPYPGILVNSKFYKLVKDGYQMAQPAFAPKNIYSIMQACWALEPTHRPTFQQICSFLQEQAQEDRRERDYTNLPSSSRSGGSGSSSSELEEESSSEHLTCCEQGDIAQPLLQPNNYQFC
T9 sequence (P29597 whole entry): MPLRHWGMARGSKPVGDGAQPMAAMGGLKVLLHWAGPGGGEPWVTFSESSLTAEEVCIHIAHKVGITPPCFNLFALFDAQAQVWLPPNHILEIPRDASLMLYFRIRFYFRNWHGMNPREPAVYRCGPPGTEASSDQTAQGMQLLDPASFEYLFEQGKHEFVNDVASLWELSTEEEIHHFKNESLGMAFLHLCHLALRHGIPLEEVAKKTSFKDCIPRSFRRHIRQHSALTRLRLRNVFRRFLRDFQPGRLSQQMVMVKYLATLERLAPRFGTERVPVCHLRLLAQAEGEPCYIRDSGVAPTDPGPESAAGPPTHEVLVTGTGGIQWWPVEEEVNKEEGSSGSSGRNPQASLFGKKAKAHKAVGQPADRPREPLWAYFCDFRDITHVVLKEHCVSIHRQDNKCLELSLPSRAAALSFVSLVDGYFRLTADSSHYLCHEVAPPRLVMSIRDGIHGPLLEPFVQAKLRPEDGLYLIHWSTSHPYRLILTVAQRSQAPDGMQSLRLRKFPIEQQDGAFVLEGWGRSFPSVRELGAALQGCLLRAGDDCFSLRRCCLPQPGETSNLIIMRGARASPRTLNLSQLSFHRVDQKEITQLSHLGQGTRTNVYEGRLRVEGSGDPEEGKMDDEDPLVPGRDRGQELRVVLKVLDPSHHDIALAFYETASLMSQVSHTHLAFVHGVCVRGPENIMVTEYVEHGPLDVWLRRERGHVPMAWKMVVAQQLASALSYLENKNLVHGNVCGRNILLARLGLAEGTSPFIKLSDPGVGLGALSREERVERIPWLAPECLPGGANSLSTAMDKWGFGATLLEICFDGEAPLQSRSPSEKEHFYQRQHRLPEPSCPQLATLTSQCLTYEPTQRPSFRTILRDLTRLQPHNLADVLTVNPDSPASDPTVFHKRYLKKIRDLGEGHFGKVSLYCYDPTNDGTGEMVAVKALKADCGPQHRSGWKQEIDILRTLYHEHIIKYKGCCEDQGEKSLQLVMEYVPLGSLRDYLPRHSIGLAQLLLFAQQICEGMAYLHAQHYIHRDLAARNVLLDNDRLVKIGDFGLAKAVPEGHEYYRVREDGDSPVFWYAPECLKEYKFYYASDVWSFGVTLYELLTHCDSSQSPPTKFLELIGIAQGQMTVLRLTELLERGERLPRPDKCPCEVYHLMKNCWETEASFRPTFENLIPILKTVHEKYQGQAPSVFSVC
T12 sequence (P36888 27-993): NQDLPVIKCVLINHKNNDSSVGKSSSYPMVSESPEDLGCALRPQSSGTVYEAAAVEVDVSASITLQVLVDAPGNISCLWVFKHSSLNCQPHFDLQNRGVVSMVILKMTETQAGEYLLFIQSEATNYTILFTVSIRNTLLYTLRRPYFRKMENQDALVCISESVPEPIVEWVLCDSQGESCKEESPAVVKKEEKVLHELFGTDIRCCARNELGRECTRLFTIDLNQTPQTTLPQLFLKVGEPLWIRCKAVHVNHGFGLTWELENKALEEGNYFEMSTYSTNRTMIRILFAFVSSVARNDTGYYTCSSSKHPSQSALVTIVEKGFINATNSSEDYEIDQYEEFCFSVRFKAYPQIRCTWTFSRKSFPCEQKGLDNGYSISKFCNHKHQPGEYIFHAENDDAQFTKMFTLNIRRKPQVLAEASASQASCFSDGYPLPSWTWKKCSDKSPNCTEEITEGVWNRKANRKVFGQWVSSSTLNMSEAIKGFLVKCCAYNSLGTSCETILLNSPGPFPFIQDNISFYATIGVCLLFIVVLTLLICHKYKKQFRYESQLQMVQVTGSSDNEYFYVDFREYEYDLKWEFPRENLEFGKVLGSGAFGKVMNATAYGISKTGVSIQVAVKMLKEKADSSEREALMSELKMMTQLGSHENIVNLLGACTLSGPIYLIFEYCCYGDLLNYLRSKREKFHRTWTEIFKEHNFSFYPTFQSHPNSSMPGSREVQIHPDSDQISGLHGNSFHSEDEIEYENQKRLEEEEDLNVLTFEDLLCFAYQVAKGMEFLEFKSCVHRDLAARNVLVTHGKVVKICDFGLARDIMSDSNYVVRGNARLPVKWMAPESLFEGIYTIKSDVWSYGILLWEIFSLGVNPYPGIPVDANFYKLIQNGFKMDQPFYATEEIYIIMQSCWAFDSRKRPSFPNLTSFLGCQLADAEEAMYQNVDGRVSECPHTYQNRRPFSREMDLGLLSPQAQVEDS

As usually defined, the pIC50 is the IC50 on a negative log10 scale, so that one unit is a factor of ten. In the case of `CCS(=O)(=O)N1CCN(c2ccc(Nc3ncc(C(N)=O)c(NC4CC4)n3)cc2)CC1` [cerdulatinib, 4-(cyclopropylamino)-2-(4-(4-(ethylsulfonyl)piperazin-1-yl)phenylamino)pyrimidine-5-carboxamide], in the assay on GM-CSF signaling (Patient 2), the “% Inhibition GM-CSF” value is recorded as 0%. Also, in the assay with GM-CSF signaling (patients), the “inhibition of JAK2 or PKC” value was “no inhibition”. The pIC50 on FLT4 was 7.29; at MST2, 7.82; on ITK, 6.71; on RSK4 it was 7.55; at RSK2, 7.70; at FMS, 8.30. Also, the pIC50 on MST1 was 8.40; on RET, 6.98; on TYK2, 9.30; at MARK1 it was 8.00; on MLK1, 8.30; at FLT3, 7.05. For the same compound, the pIC50 at JAK1 is 7.92.
